Results on 14 compounds are retold here after patent publication US6794372B2, “Nitrate salts of antimicrobial agents” (Nicox S.A., priority 2000, dated 2004).

Assay [1] has as its system Staphylococcus Aureus (ATCC29213). Kind of assay: Dilution test in vitro on medium for antibacterial agents, strain S. Aureus. The class given is cell-based. To be noted: CAMH broth, 5×10^5 CFU/ml, 35° C. for 20 hr, read with the naked eye. The text has this:
(§1) Dilution Test in vitro on Medium for Antibacterial Agents
(§2) Such activity has been determined by using the dilution method in vitro on culture medium as described by Sahm et al. (S. D. Sahm, J. A. Washington “Antibacterial susceptibility tests: dilution methods” in: Manual of Clinical Microbiology, ed. A. Balows, W. J. Hausler, Jr, K. L. Hermann, H. D. Isenberg, H. J. Shadomy, 1991, American Society for Microbiology). According to this method a concentration in aqueous solution of substance having antimicrobial activity able to inhibit the growth of some bacterial strains is determined. For the precursor the maximum concentration of the substance at which the microbial growth is still observed under the adopted experimental conditions is selected and the same concentration is used for the corresponding nitrate salt. The solvents and the necessary dilutions for preparing the strain substances of the antibiotics to be tested are prepared according to procedures standard and well known to the person skilled in the field (National Committee for Clinical Laboratory Standards, 1990 “Methods for dilution antimicrobial susceptibility tests for bacteria that grow aerobically. Approved standard M7-A2. National Committee for Clinical Laboratory Standards, Villanova, Pa.). Also the preparation of the culture medium is carried out according to standard procedures and the CAMH broth is used (Cation-adjusted Mueller-Hinton broth) (National Committee for Clinical Laboratory Standards, 1990, Methods for dilution antimicrobial susceptibility tests for bacteria that grow aerobically. Approved standard M7-A2. National Committee for Clinical Laboratory Standards, Villanova, Pa.).
(§3) The inoculation procedure is carried out according to standard procedures and the final concentration of the inocolum is of 5×10^5 CFU (colony forming unit)/ml. The used microorganisms have been Escherichia Coli (ATCC25922) and Staphylococcus Aureus (ATCC29213).
(§4) The test tubes are incubated at 35° C. for 20 hr before reading. The microbial growth, or the absence of the same, is determined in a qualitative way, with the naked eye and it indicates the microbial resistance or, respectively, the sensitivity to the antimicrobial agent.

Assay [2] concerns Escherichia Coli (ATCC25922). As to the kind of experiment: Dilution test in vitro on medium for antibacterial agents, strain E. Coli. The format is cell-based. To be noted: CAMH broth, 5×10^5 CFU/ml, 35° C. for 20 hr, read with the naked eye.
From the text: as §1
The capability to antagonize the arising of the microbial resistance of the nitrate salts of the antimicrobial compounds in comparison with that of the respective precursors has been evaluated.
as §2, §3, §4

Consider `CC[C@H]1OC(=O)[C@H](C)[C@@H](O[C@H]2C[C@@](C)(OC)[C@@H](O)[C@H](C)O2)[C@H](C)[C@@H](O[C@@H]2O[C@H](C)C[C@H](N(C)C)[C@H]2O)[C@](C)(O)C[C@@H](C)C(=O)[C@H](C)[C@@H](O)[C@]1(C)O.O=[N+]([O-])O` [Erythromycin.HNO3, Erythromycin nitrate salt], for which, in assay [1] (concentration 0.06 μg/ml), the “RESPONSE (microbial growth)” value is given as “No growth”.

Consider `COc1cc(Cc2cnc(N)nc2N)cc(OC)c1OC.O=[N+]([O-])O` [Trimethoprim.HNO3, Trimethoprim nitrate salt], for which, in assay [1] (concentration 0.5 μg/ml), the “RESPONSE (microbial growth)” value is “No growth”.

As for `O=C(O)c1cn(C2CC2)c2cc(N3CCNCC3)c(F)cc2c1=O.O=[N+]([O-])O` [Ciprofloxacin.HNO3, Ciprofloxacin nitrate salt], in assay [1] (concentration 1.0 μg/ml), the “RESPONSE (microbial growth)” value is listed as “No growth”.

Turning to `CC1(C)S[C@@H]2[C@H](NC(=O)[C@H](N)c3ccccc3)C(=O)N2[C@H]1C(=O)O.O=[N+]([O-])O` [Ampicillin.HNO3, Ampicillin nitrate salt], the “RESPONSE (microbial growth)” value in assay [2] (concentration 1.0 μg/ml) is “No growth”.

For `Cc1nnc(SCC2=C(C(=O)O)N3C(=O)[C@@H](NC(=O)Cn4cnnn4)[C@H]3SC2)s1.O=[N+]([O-])O` [Cefazolin.HNO3, Cefazolin nitrate salt], the “RESPONSE (microbial growth)” value in assay [2] (concentration 0.5 μg/ml) is given as “No growth”.

Turning to `CCC[C@@H]1C[C@@H](C(=O)N[C@@H]([C@H]2O[C@H](SC)[C@H](O)[C@@H](O)[C@H]2O)[C@H](C)Cl)N(C)C1` [Clindamycin], the “RESPONSE (microbial growth)” value in assay [1] (concentration 0.03 μg/ml) is given as “Growth”.

In the case of `CC1(C)S[C@@H]2[C@H](NC(=O)[C@H](N)c3ccccc3)C(=O)N2[C@H]1C(=O)O` [Ampicillin], the “RESPONSE (microbial growth)” value in assay [2] (concentration 1.0 μg/ml) is listed as “Growth”.

In the case of `CC[C@H]1OC(=O)[C@H](C)[C@@H](O[C@H]2C[C@@](C)(OC)[C@@H](O)[C@H](C)O2)[C@H](C)[C@@H](O[C@@H]2O[C@H](C)C[C@H](N(C)C)[C@H]2O)[C@](C)(O)C[C@@H](C)C(=O)[C@H](C)[C@@H](O)[C@]1(C)O` [Erythromycin], the “RESPONSE (microbial growth)” value in assay [1] (concentration 0.06 μg/ml) was “Growth”.

For the compound `O=C(O)c1cn(C2CC2)c2cc(N3CCNCC3)c(F)cc2c1=O` [Ciprofloxacin], in assay [1] (concentration 0.05 μg/ml), the “RESPONSE (microbial growth)” value is reported as “Growth”.

With `Cc1cc(NS(=O)(=O)c2ccc(N)cc2)no1` [Sulfamethoxazole], the “RESPONSE (microbial growth)” value in assay [1] (concentration 20 μg/ml) is “Growth”.

Consider `Cc1cc(NS(=O)(=O)c2ccc(N)cc2)no1.O=[N+]([O-])O` [Sulfamethoxazole.HNO3, Sulfamethoxazole nitrate salt], for which the “RESPONSE (microbial growth)” value in assay [1] (concentration 20 μg/ml) is given as “No growth”.

As to `Cc1nnc(SCC2=C(C(=O)O)N3C(=O)[C@@H](NC(=O)Cn4cnnn4)[C@H]3SC2)s1` [Cefazolin], the “RESPONSE (microbial growth)” value in assay [2] (concentration 0.5 μg/ml) is “Growth”.

Turning to `CCCC1CC(C(=O)NC(C(C)Cl)C2OC(SC)C(O)C(O)C2O)N(C)C1.O=[N+]([O-])O` (centres unmarked) [Clindamycin.HNO3, Clindamycin nitrate salt], the “RESPONSE (microbial growth)” value in assay [1] (concentration 0.03 μg/ml) is reported as “No growth”.

For the compound `COc1cc(Cc2cnc(N)nc2N)cc(OC)c1OC` [Trimethoprim], the “RESPONSE (microbial growth)” value in assay [1] (concentration 0.5 μg/ml) is recorded as “Growth”.
